Reference: the supplement of paper PMC10307832

Key:
Test in all cases: relative viability (nuclei count vs DMSO), 5 days (fraction); higher = more cells survive
IU1-47 + Vorinostat = compound: CC1=CC(=C(N1C2=CC=C(C=C2)Cl)C)C(=O)CN3CCCCC3 [IU1-47] + O=C(CCCCCCC(=O)Nc1ccccc1)NO [Vorinostat] (partner 1 µM)
How it was run: (§1)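 Lung cancer cell lines were pin-tool dosed in 1536-well plates on the day after seeding, with either a lone drug or a fixed anchor-drug dose plus five library-drug doses (not always all listed) in √10 steps. Nuclei were counted on 4× images after 5 days. Relative viability is the ratio of treated-well to vehicle-well nuclei counts, with each value a median of duplicate plates.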

FG-4592 + Luminespib = compound: Cc1nc(C(=O)NCC(=O)O)c(O)c2ccc(Oc3ccccc3)cc12 [FG-4592] + CCNC(=O)c1noc(-c2cc(C(C)C)c(O)cc2O)c1-c1ccc(CN2CCOCC2)cc1 [Luminespib] (partner 0.01 µM)
How it was run: as §1

FG-4592 + Tozasertib = compound: Cc1nc(C(=O)NCC(=O)O)c(O)c2ccc(Oc3ccccc3)cc12 [FG-4592] + Cc1cc(Nc2cc(N3CCN(C)CC3)nc(Sc3ccc(NC(=O)C4CC4)cc3)n2)n[nH]1 [Tozasertib] (partner 0.1 µM)
How it was run: as §1

FG-4592 + Olaparib = compound: Cc1nc(C(=O)NCC(=O)O)c(O)c2ccc(Oc3ccccc3)cc12 [FG-4592] + O=C(c1cc(Cc2n[nH]c(=O)c3ccccc23)ccc1F)N1CCN(C(=O)C2CC2)CC1 [Olaparib] (partner 8 µM)
How it was run: as §1

Cell Line | relative viability (IU1-47 + Vorinostat; first compound 0.08 µM) | relative viability (IU1-47 + Vorinostat; first compound 0.253 µM) | relative viability (IU1-47 + Vorinostat; first compound 0.8 µM) | relative viability (IU1-47 + Vorinostat; first compound 2.53 µM) | relative viability (IU1-47 + Vorinostat; first compound 8 µM) | relative viability (FG-4592 + Luminespib; first compound 0.08 µM) | relative viability (FG-4592 + Luminespib; first compound 0.253 µM) | relative viability (FG-4592 + Luminespib; first compound 0.8 µM) | relative viability (FG-4592 + Luminespib; first compound 2.53 µM) | relative viability (FG-4592 + Luminespib; first compound 8 µM) | relative viability (FG-4592 + Tozasertib; first compound 0.08 µM) | relative viability (FG-4592 + Tozasertib; first compound 0.253 µM) | relative viability (FG-4592 + Tozasertib; first compound 0.8 µM) | relative viability (FG-4592 + Tozasertib; first compound 2.53 µM) | relative viability (FG-4592 + Tozasertib; first compound 8 µM) | relative viability (FG-4592 + Olaparib; first compound 0.08 µM) | relative viability (FG-4592 + Olaparib; first compound 0.253 µM) | relative viability (FG-4592 + Olaparib; first compound 0.8 µM) | relative viability (FG-4592 + Olaparib; first compound 2.53 µM) | relative viability (FG-4592 + Olaparib; first compound 8 µM)
NCI-H441 | 0.947 | 0.884 | 0.764 | 0.813 | 0.595 | 0.314 | 0.307 | 0.307 | 0.443 | 0.287 | 0.679 | 0.521 | 0.712 | 0.619 | 0.688 | 0.431 | 0.462 | 0.49 | 0.502 | 0.493
LCLC-103H | 0.748 | 0.819 | 0.82 | 0.561 | 0.704 | 0.891 | 0.935 | 0.998 | 1.09 | 0.855 | 0.42 | 0.529 | 0.572 | 0.557 | 0.411 | 0.746 | 0.751 | 0.695 | 0.708 | 0.751
LCLC-97TM1 | 0.919 | 0.869 | 0.82 | – | 0.571 | 0.763 | 0.728 | 0.854 | 0.695 | 0.797 | 0.173 | 0.214 | 0.23 | 0.244 | 0.18 | 0.444 | 0.417 | – | 0.329 | 0.421
NCI-H727 | 1.26 | 1.38 | 1.21 | 1.13 | 1.11 | 0.341 | 0.237 | 0.335 | 1.02 | 0.326 | 0.608 | 0.591 | 0.757 | 0.807 | 0.678 | 0.698 | 0.782 | 0.752 | 0.681 | 0.672
NCI-H1355 | 0.72 | 0.646 | 0.674 | – | 0.518 | 0.808 | 0.67 | 0.465 | 0.681 | 0.676 | 0.525 | 0.551 | 0.55 | 0.573 | 0.521 | 0.803 | 0.66 | – | 0.759 | 0.719
HOP-62 | 0.693 | 0.675 | 0.752 | 0.433 | 0.532 | 0.88 | 0.871 | 0.993 | 0.902 | 0.962 | 0.406 | 0.393 | 0.381 | 0.367 | 0.41 | 0.373 | 0.561 | 0.496 | 0.383 | 0.338
NCI-H2085 | 0.853 | 0.861 | 0.791 | 0.626 | 0.76 | 0.439 | 0.47 | 0.389 | 0.426 | 0.462 | 0.79 | 0.774 | 0.758 | 0.792 | 0.933 | 0.738 | 0.779 | 0.845 | 0.744 | 0.873
